Experimental data reported in US20040157773A1, “Farnesyl protein transferase inhibitors for treating cachexia” (priority 2003, published 2004).

What was measured:
[1] = Body weight loss (cachexia) in nude mice bearing subcutaneous A375.S2 tumors; type: in vivo; settings: for reduction in weight loss: weight loss day 1 to day 23, corrected for tumor burden, vs vehicle
Excerpt: (§1) A375.S2 human melanoma cells were purchased from the American Type Culture Collection (Rockville, Md.). Cells were maintained in Dulbecco's Modified Eagle's Medium supplemented with pyruvate, nonessential amino acids, 10% fetal calf serum and penicillin-streptomycin.
(§2) Female nu/nu immunodeficient nude mice (42 days old) were purchased from Charles River Laboratories (Wilmington, Mass.). Mice were housed five per cage in microisolator cages placed in laminar flow shelving to maintain sterility. All bedding, food, water and cages were autoclaved. Animals were handled within the sterile confines of a laminar flow cabinet. The mice were otherwise maintained under standard vivarium conditions.
Cells growing as monolayers in T150 tissue culture flasks were detached by trypsinization with 10 ml of 0.05% trypsin plus 0.53 mM EDTA per flask. Tumor cell suspensions were pooled and trypsin was inactivated by the addition of serum containing medium (10 ml per 40 ml of trypsin cell suspension). Cells were collected by centrifugation and resuspended in Hank's Balanced Salt Solution (HBSS) warmed to 37° C. A 1.0 ml portion of cell suspension was added to 20 ml of diluent and counted on a Coulter particle counter. The cell suspensions were recentrifuged and resuspended at a concentration of 1×10^6 cell per 0.10 ml of HBSS. Mice were inoculated with a single subcutaneous injection of 0.10 ml of tumor cell suspension in the inguinal region. Mice were housed five per cage with 15 mice assigned to each treatment group. Mice were tagged by ear punches to allow the monitoring of individual mice during the course of the study. Body weight and tumor size determined from caliper measurements were measured weekly. The caliper measurements of length and width were multiplied to obtain tumor areas. At the end of study, mice were sacrificed by CO2 asphyxiation. Three days after tumor inoculation, the five-day treatment with R115777 was initiated. R115777 was administered once daily by oral gavage in a 20% β-cyclodextrin vehicle as a volume of 0.10 ml of solution per 10 gm body weight. Control groups received the same dosage volume of the 20% β-cyclodextrin vehicle.
R115777 was prepared for oral administration by dissolving the compound first as a 2× concentrated stock in 40% hydroxypropyl β-cyclodextrin in 0.1 N HCl. R115777 was dissolved by stirring vigorously approximately 30 minutes followed by sonication for 10 min. The R115777 solutions were brought to a final concentration by diluting 1:1 with 0.1 N HCl. The final drug solutions were sterile filtered immediately and transferred to sterile tubes. Solutions were stored refrigerated and protected from light during the course of the study and sterility was maintained by opening solutions under sterile laminar flow conditions.
(§3) Analysis of variance, mean values for treatment groups and standard error of the mean for in vivo parameters were calculated using IMSL subroutines on a VAX computer. A value of p<0.05 was considered significant. Weight loss was calculated for each individual animal from day 1 to day 23. Mean body weight loss for each treatment group was calculated and used for statistical analyses.

[2] = test system: A375.S2 human melanoma cells; assay: Tumor growth of subcutaneous A375.S2 xenografts in nude mice; type: in vivo; settings: oral
Excerpt: as §1, §2
Cells growing as monolayers in T150 tissue culture flasks were detached by trypsinization with 10 ml of 0.05% trypsin plus 0.53 mM EDTA per flask. […] A 1.0 ml portion of cell suspension was added to 20 ml of diluent and counted on a Coulter particle counter. […]
as §3, with “A value of p<0.05 was considered significant.” left out

Question: Which “reduction in weight loss” value ([1]; 50 mg/kg once daily oral gavage, A375.S2 tumor-bearing nude mice) does the source give for `Cn1cncc1C(N)(c1ccc(Cl)cc1)c1ccc2c(c1)c(-c1cccc(Cl)c1)cc(=O)n2C` (single isomer, unassigned; (+)) [R115777, (+)-6-[amino(4-chlorophenyl)(1-methyl-1H-imidazol-5-yl)methyl]-4-(3-chlorophenyl)-1-methyl-2(1H)-quinolinone] here?
Answer: Its value is 28%.

Question: What about the “reduction in weight loss” value ([1]; 100 mg/kg once daily oral gavage, A375.S2 tumor-bearing nude mice) of the same compound?
Answer: Its value is 45%.

Question: What about the “reduction in weight loss” value ([1]; 200 mg/kg once daily oral gavage, A375.S2 tumor-bearing nude mice) of the same compound?
Answer: The value was 67%.

Question: And the “body weight course (weight loss)” value ([1]; oral, 50-200 mg/kg, body weight over time from day 14 (FIG. 2), A375.S2 tumor-bearing nude mice)?
Answer: The value was “appeared to prevent or delay the weight loss in a dose-dependent fashion”.

Question: What about the “body weight loss, statistical result” value ([1]; oral, 50-200 mg/kg, individual weight loss day 1 to day 23 corrected for tumor burden (FIG. 3), p<0.05 significant) of the same compound?
Answer: The value was “significant dose dependent reduction of body weight loss”.

Question: And the “reduction of final tumor weight” value ([2]; highest tested dose, postmortem tumor weight (FIG. 5))?
Answer: Its value is 27%.

Question: And the “tumor growth from tumor area measurements” value ([2]; 50-200 mg/kg, biweekly tumor area measurements (FIG. 1))?
Answer: Its value is “minimal reduction in tumor growth”.
